Experimental data: US20240101572A1, “DIHYDROOXADIAZINONE COMPOUND AND PHARMACEUTICAL USE THEREOF” (Japan Tobacco Inc., priority 2022, published 2024)
Like-named read-outs stand apart in the source and are kept apart here.

Columns and labels:
[1] = target: full-length human PLD2 (Homo sapiens (Human), UniProt O14939); test: Evaluation of human PLD2 enzyme inhibitory activity (Amplex Red / choline oxidase fluorescence); assay type: biochemical; conditions: for IC50: full-length human PLD2 enzyme, read-out: PLD2 IC50
full-length human PLD2, sequence (O14939 whole entry): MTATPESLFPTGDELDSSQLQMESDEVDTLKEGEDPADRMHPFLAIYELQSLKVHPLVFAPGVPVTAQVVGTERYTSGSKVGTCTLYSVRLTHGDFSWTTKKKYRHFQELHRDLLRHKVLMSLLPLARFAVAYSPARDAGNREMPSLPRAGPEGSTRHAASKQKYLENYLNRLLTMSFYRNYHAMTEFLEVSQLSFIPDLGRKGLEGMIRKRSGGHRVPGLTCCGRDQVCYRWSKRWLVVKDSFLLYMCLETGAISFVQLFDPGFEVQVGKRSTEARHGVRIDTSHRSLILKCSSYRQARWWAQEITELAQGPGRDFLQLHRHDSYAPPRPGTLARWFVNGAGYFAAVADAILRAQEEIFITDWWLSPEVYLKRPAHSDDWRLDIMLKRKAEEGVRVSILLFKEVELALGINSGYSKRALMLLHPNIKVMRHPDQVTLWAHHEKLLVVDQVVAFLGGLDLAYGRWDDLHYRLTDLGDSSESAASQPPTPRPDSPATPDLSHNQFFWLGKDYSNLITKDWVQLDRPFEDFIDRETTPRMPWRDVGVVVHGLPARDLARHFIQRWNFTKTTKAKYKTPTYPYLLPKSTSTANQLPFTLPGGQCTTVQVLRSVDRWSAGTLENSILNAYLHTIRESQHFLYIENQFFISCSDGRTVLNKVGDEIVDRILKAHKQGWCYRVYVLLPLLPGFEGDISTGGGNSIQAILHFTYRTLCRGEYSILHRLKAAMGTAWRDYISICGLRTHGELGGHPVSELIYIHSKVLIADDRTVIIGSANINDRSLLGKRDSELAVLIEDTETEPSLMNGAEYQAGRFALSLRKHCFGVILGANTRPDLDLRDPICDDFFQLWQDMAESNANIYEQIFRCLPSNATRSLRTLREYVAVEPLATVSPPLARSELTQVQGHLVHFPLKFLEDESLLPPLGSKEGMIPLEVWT
Method in brief: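 Released choline was read by Amplex Red fluorescence coupled to choline oxidase and HRP after a 60 min room-temperature reaction. Substrate was diheptanoyl phosphatidylcholine, added as a 6 mmol/L solution, and enzyme was FLAG-tagged full-length human PLD2 from Expi293F, added as a 6 nmol/L solution. Buffer was 50 mM HEPES pH 7.5 with 5% final DMSO.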

[2] = target: full-length human PLD1 (Homo sapiens (Human), UniProt Q13393); test: Evaluation of human PLD1 enzyme inhibitory activity (Amplex Red / choline oxidase fluorescence); assay type: biochemical; conditions: for IC50: full-length human PLD1 enzyme, read-out: PLD1 IC50
full-length human PLD1, sequence (Q13393 other isoform, or with tags, fused parts or gaps): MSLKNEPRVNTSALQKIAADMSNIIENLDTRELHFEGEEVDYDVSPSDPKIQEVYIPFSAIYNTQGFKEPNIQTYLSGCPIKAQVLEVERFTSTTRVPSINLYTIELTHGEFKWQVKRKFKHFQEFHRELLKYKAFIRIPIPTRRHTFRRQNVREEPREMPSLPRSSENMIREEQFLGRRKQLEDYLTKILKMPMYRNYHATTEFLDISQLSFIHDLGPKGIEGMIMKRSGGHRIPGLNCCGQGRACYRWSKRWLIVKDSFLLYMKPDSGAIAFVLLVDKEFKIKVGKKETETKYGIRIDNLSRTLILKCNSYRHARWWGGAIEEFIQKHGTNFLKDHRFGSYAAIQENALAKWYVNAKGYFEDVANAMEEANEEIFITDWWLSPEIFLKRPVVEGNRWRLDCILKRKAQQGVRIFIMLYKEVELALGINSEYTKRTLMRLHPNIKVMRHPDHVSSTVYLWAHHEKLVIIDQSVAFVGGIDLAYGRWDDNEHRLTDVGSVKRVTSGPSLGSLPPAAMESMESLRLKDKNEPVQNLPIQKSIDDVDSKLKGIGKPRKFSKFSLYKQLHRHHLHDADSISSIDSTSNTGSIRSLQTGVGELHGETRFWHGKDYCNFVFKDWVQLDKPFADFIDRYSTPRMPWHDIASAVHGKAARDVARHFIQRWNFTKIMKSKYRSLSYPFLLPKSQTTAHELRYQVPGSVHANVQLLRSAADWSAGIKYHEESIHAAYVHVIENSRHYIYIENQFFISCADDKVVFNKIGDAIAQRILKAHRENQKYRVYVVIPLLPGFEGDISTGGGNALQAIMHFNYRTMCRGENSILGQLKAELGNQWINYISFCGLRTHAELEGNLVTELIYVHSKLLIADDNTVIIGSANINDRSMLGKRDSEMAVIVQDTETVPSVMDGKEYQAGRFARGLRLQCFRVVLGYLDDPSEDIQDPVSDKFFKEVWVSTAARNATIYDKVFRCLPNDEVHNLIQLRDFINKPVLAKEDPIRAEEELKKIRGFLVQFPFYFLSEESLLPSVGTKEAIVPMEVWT
Method in brief: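 Fluorescence read-out couples choline to Amplex Red via choline oxidase and peroxidase after a 60 min room-temperature reaction. Enzyme: FLAG-tagged full-length human PLD1 from Expi293F cells, anti-FLAG purified; substrate diheptanoyl phosphatidylcholine; HEPES pH 7.5 assay buffer with 0.01% NP-40, 0.1% BSA, 5% DMSO final.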

Row | Compound | inhibition at 10 µM ([1]; 10 μM compound, read-out: PLD2 inhibition rate at 10 μM) | inhibition at 10 µM ([1]; read-out: inhibition rate of PLD2 at 10 μM compound) | inhibition at 10 µM ([2]; 10 μM compound, read-out: PLD1 inhibition rate at 10 μM) | inhibition at 10 µM ([2]; read-out: inhibition rate of PLD1 at 10 μM compound) | IC50 [1] | IC50 [2]
1 | C[C@@H](CN1CCC2(CC1)OC(=O)NN=C2c1cc(C#N)ccc1Br)NC(=O)/C=C\C(=O)O [Example 2-047] | 34% | 34% | 32% | 32% | – | –
2 | C[C@@H](C[C@H]1CC[C@]2(CC1)OC(=O)NN=C2c1cc(C#N)ccc1Br)NC(=O)c1ccn(C)n1 [Example 2-070] | – | – | – | – | 38 nM | 68 nM
3 | CNC(=O)C(=O)N[C@@H](C)C[C@H]1CC[C@]2(CC1)OC(=O)NN=C2c1cnc(N2CC(C)C2)cc1C [Example 182] | – | – | – | – | < 10 nM | 19 nM
4 | Cc1cc(C(=O)NC(C)CN2CCC3(CC2)OC(=O)NN=C3c2cccc(F)c2Br)[nH]n1 (stereo not drawn) [Example 2-031] | – | – | – | – | < 10 nM | 19 nM
5 | CNC(=O)C(=O)N[C@@H](C)CN1CCC2(CC1)OC(=O)NN=C2c1c(F)cccc1Br [Example 2-018] | – | – | – | – | < 10 nM | 22 nM
6 | COc1cc(C)c(C2=NNC(=O)O[C@]23CC[C@@H](C[C@H](C)NC(=O)C(=O)NC2CC2)CC3)cn1 [Example 220] | – | – | – | – | 33 nM | 42 nM
7 | CNC(=O)C(=O)N[C@@H](C)C[C@H]1CC[C@]2(CC1)OC(=O)NN=C2c1cc(OC(F)F)ccc1Br [Example 184] | – | – | – | – | < 10 nM | < 10 nM
8 | CNC(=O)C(=O)N[C@@H](C)C[C@H]1CC[C@]2(CC1)OC(=O)NN=C2c1cc(OC)c(F)cc1Br [Example 2-050] | – | – | – | – | < 10 nM | 12 nM
9 | C[C@@H](C[C@H]1CC[C@]2(CC1)OC(=O)NN=C2c1ccc(OC(F)F)cc1Br)NC(=O)c1ccn[nH]1 [Example 143] | – | – | – | – | 25 nM | 27 nM
10 | C[C@@H](C[C@H]1CC[C@]2(CC1)OC(=O)NN=C2c1ccc(F)cc1Br)NC(=O)c1cc2ccccc2o1 [Example 19] | – | – | – | – | 10 nM | 17 nM
11 | CNC(=O)C(=O)N[C@@H](C)CN1CCC2(CC1)OC(=O)NN=C2c1ccc(C#N)cc1C(F)(F)F [Example 327] | – | – | – | – | 51 nM | 110 nM
